B1: full length Cav-1: full length Caveolin-1 protein administered in vitro (protein, UniProt Q03135 1-178, looked up)
chain: MSGGKYVDSEGHLYTVPIREQGNIYKPNNKAMADELSEKQVYDAHTKEIDLVNRDPKHLNDDVVKIDFEDVIAEPEGTHSFDGIWKASFTTFTVTKYWFYRLLSALFGIPMALIWGIYFAILSFLHIWAVVPCIKSFLIEIQCISRVYSIYVHTVCDPLFEAVGKIFSNVRINLQKEI
modifications: full-length
notes: full length Caveolin-1 protein administered in vitro

Assays:
[1] = test system: Cav-1 overexpressing U-87MG cells (LV105 Cav-1); assay: Annexin V / propidium iodide flow cytometry of TMZ-treated U-87MG cells; type: cell-based, human
Procedure: FIG. 5. […] Each group is normalized to its own DMSO control (*p<0.05 and **p<0.01 vs internal DMSO control, \p<0.01 vs TMZ treated LV105 control, n=3 per group).
U-87MG cells (50,000/well) were plated in 12-well tissue culture dishes and allowed to attach overnight prior to changing their medium into complete EMEM containing either 500 μM TMZ or DMSO control and culturing them for an additional 72 hours. Cells were then trypsinized, centrifuged at 300×g for 5 min and resuspended in binding buffer with APC-conjugated anti-Annexin V antibody (BP Biosciences) and 0.33 μg/ml Propidium Iodide (PI, KPL, Gaithersburg, Md.). All samples were run on a BD FACSCalibur flow cytometer (BD Biosciences). Cells were quantified according to staining as follows: viable (Annexin V negative, PI negative), early apoptotic (Annexin V positive, PI negative), late apoptotic (Annexin V positive, PI positive), and dead (Annexin V negative, PI positive).

[2] = cited from earlier work
[3] = test system: three different GBM-derived cell lines; details: in vitro administration, Boyden-chamber assay; cited from earlier work

Row | Molecule | increase in early apoptotic cells compared to TMZ-treated LV105 control cells ([1]; Cav-1 overexpressing U-87MG cells, 500 μM, 72 hours, p<0.01) [%] | cytotoxicity at 500 µM ([1]; Homo sapiens, U-87 MG, 72 h, read-out: reduction in cell viability compared to TMZ treated LV105 control cells) [%] | stability at acidic pH ([2]; pH <5) | stability at pH>7 ([2]; pH >7) | invasion [3]
1 | Cn1nnc2c(C(N)=O)ncn2c1=O [temozolomide, 3,4-dihydro-3-methyl-4-oxoimidazo[5,1-d]-αs-tetrazine-8-carboxamide] | > 400 | 5.5 | stable | labile | –
2 | B1 | – | – | – | – | prevented invasion

— patent US10022372B2, “Caveolin-1 related methods for treating glioblastoma with temozolomide” (THOMAS JEFFERSON UNIVERSITY, priority 2013, dated 2018)
